Source: patent US8834423B2, “Dissolvable microneedle arrays for transdermal delivery to human skin” (University of Pittsburgh—of the Commonwealth System of …, priority 2009, dated 2014)

Tested on: epidermal cells
Details: 5 mg/g of CMC, pyramidal array applied 5 minutes, 72 hours of exposure
Protocol: This is a therapeutically relevant concentration based on the area of skin targeted, yet well below levels associated with systemic toxicities. […] Arrays and residual material were removed 5 minutes after application, and after 72 hours of exposure, culture living skin explants were cryo-sectioned and fixed.

Structure (SMILES): O=P1(N(CCCl)CCCl)NCCCO1 (stereo not shown) [CYTOXAN, cyclophosphamide]
- apoptosis (TUNEL) in skin sections: extensive apoptosis of epidermal cells
